Data taken from patent US9593149B2, “Amylin and calcitonin receptor agonist” (Novo Nordisk A/S, priority 2014, dated 2017).
Values after ≈ are worked out from the molar mass of the structure shown. Numbered stars: 1 amine (or outer) side, 2 acyl side, 3 side chain; on linkers, the order of the positions; unused ones are H or OH. Peptide text beside a SMILES is read from it. * marks the point of attachment. C20 diacid = O=C(O)CCCCCCCCCCCCCCCCCCC(=O)*; C18 diacid = O=C(O)CCCCCCCCCCCCCCCCC(=O)*; γGlu = O=C(O)[C@H](CCC(=O)[*:2])N[*:1]

Experiment: Assay (IV) determination of solubility
Type: physicochemical
Method: Assay (IV)—Determination of Solubility
The mimylin peptide was dissolved in water at ˜500 nmol/ml and mixed 1:1 with a series of buffers (100 mM glycylglycine pH 3.0, 100 mM glycylglycine pH 4.0, 100 mM glycylglycine pH 5.0, 100 mM bistrispropane pH 6.0, 100 mM bistrispropane pH 6.5, 100 mM bistrispropane pH 7.0, 100 mM bistrispropane pH 7.5, 100 mM bistrispropane pH 8.0).

SMILES	Solubility (pH 3.0)	Solubility (pH 4.0)	solubility at 18 h (pH 5.0) [µM]	Solubility (pH 6.0)	Solubility (pH 6.5)	Solubility (pH 7.0)	Solubility (pH 7.5)	Solubility (pH 8.0)	solubility at 18 h (pH 4.0) [µM]	Solubility (pH 5.0)
CC(C)C[C@H](NC(=O)[C@H](CCCNC(=N)N)NC(=O)CNC(=O)[C@H](CC(C)C)NC(=O)[C@@H](NC(=O)[C@H](C)NC(=O)[C@@H](NC(=O)[C@H](CO)NC(=O)[C@H](CC(C)C)NC(=O)[C@H](CCC(=O)O)NC(=O)[C@H](CO)NC(=O)[C@H](C)NC(=O)CC[C@H](NC(=O)CCCCCCCCCCCCCCCCCCC(=O)O)C(=O)O)[C@@H](C)O)[C@@H](C)O)C(=O)N[C@@H](CO)C(=O)N[C@@H](C)C(=O)N[C@@H](CCC(=O)O)C(=O)N[C@@H](CC(C)C)C(=O)N[C@@H](Cc1cnc[nH]1)C(=O)N[C@@H](CCC(=O)O)C(=O)N[C@@H](CC(C)C)C(=O)N[C@@H](CO)C(=O)N[C@H](C(=O)N[C@@H](Cc1ccc(O)cc1)C(=O)N1CCC[C@H]1C(=O)N[C@@H](CCCNC(=N)N)C(=O)N[C@H](C(=O)N[C@@H](CCC(=O)O)C(=O)N[C@H](C(=O)NCC(=O)N[C@@H](CO)C(=O)NCC(=O)N[C@@H](CO)C(=O)N1CCC[C@H]1C(N)=O)[C@@H](C)O)[C@@H](C)O)[C@@H](C)O [compound 92, [N-terminal(C20 diacid-gGlu), des1, 9T, 21S, 23Y, 30S, 31G]mimylin] ({C20 diacid-γGlu}-ASELSTATLGRLSAELHELSTYPRTETGSGSP-NH2)	≧200 μM	≧200 μM	169 (≈ 638 µg/mL)	≧200 μM	≧200 μM	≧200 μM	≧200 μM	≧200 μM	–	–
CC(C)C[C@H](NC(=O)[C@H](C)NC(=O)[C@H](C)NC(=O)[C@@H](NC(=O)[C@H](CO)NC(=O)[C@H](CC(C)C)NC(=O)[C@H](CCC(=O)O)NC(=O)[C@H](CO)NC(=O)[C@H](C)NC(=O)CC[C@H](NC(=O)CCCCCCCCCCCCCCCCCCC(=O)O)C(=O)O)[C@@H](C)O)C(=O)NCC(=O)N[C@@H](CCCNC(=N)N)C(=O)N[C@@H](CC(C)C)C(=O)N[C@@H](CO)C(=O)N[C@@H](C)C(=O)N[C@@H](CCC(=O)O)C(=O)N[C@@H](CC(C)C)C(=O)N[C@@H](Cc1cnc[nH]1)C(=O)N[C@@H](CCC(=O)O)C(=O)N[C@@H](CC(C)C)C(=O)N[C@@H](C)C(=O)N[C@H](C(=O)N[C@@H](Cc1ccc(O)cc1)C(=O)N1CCC[C@H]1C(=O)N[C@@H](CCCNC(=N)N)C(=O)N[C@H](C(=O)N[C@@H](CCC(=O)O)C(=O)N[C@H](C(=O)NCC(=O)N[C@@H](CO)C(=O)NCC(=O)N[C@@H](CO)C(=O)N[C@@H](Cc1ccc(O)cc1)C(=O)O)[C@@H](C)O)[C@@H](C)O)[C@@H](C)O [compound 88, [N-terminal(C20 diacid-gGlu), des1, 23Y, 30S, 31G, 33Y, C-terminal(−)]mimylin] ({C20 diacid-γGlu}-ASELSTAALGRLSAELHELATYPRTETGSGSY-OH)	≧200 μM	–	6 (≈ 22.8 µg/mL)	≧200 μM	≧200 μM	≧200 μM	≧200 μM	≧200 μM	1 (≈ 3.79 µg/mL)	–
CC(C)C[C@H](NC(=O)[C@H](C)NC(=O)[C@H](C)NC(=O)[C@@H](NC(=O)[C@H](CO)NC(=O)[C@H](CC(C)C)NC(=O)[C@H](CCC(=O)O)NC(=O)[C@H](CO)NC(=O)[C@H](C)NC(=O)CC[C@H](NC(=O)CCCCCCCCCCCCCCCCCCC(=O)O)C(=O)O)[C@@H](C)O)C(=O)NCC(=O)N[C@@H](CCCNC(=N)N)C(=O)N[C@@H](CC(C)C)C(=O)N[C@@H](CO)C(=O)N[C@@H](C)C(=O)N[C@@H](CCC(=O)O)C(=O)N[C@@H](CC(C)C)C(=O)N[C@@H](Cc1cnc[nH]1)C(=O)N[C@@H](CCC(=O)O)C(=O)N[C@@H](CC(C)C)C(=O)N[C@@H](C)C(=O)N[C@H](C(=O)N[C@@H](CC(C)C)C(=O)N1CCC[C@H]1C(=O)N[C@@H](CCCNC(=N)N)C(=O)N[C@H](C(=O)N[C@@H](CCC(=O)O)C(=O)N[C@H](C(=O)NCC(=O)N[C@@H](CO)C(=O)NCC(=O)N[C@@H](CO)C(=O)N[C@@H](Cc1ccccc1)C(N)=O)[C@@H](C)O)[C@@H](C)O)[C@@H](C)O [compound 61, [N-terminal(C20 diacid-gGlu), des1, 30S, 31G, 33F]mimylin] ({C20 diacid-γGlu}-ASELSTAALGRLSAELHELATLPRTETGSGSF-NH2)	≧200 μM	≧200 μM	101 (≈ 376 µg/mL)	≧200 μM	≧200 μM	≧200 μM	≧200 μM	≧200 μM	–	–
CC(C)C[C@H](NC(=O)CNC(=O)[C@H](CO)NC(=O)[C@H](C)NC(=O)CC[C@H](NC(=O)CCCCCCCCCCCCCCCCCCC(=O)O)C(=O)O)C(=O)N[C@@H](CO)C(=O)N[C@H](C(=O)N[C@@H](C)C(=O)N[C@@H](C)C(=O)N[C@@H](CC(C)C)C(=O)NCC(=O)N[C@@H](CCCNC(=N)N)C(=O)N[C@@H](CC(C)C)C(=O)N[C@@H](CO)C(=O)N[C@@H](CCC(N)=O)C(=O)N[C@@H](CCC(=O)O)C(=O)N[C@@H](CC(C)C)C(=O)N[C@@H](Cc1cnc[nH]1)C(=O)N[C@@H](CCC(=O)O)C(=O)N[C@@H](CC(C)C)C(=O)N[C@@H](CCC(N)=O)C(=O)N[C@H](C(=O)N[C@@H](Cc1ccc(O)cc1)C(=O)N1CCC[C@H]1C(=O)N[C@@H](Cc1cnc[nH]1)C(=O)N[C@H](C(=O)N[C@@H](CCC(=O)O)C(=O)N[C@H](C(=O)NCC(=O)N[C@@H](CO)C(=O)NCC(=O)N[C@H](C(=O)N[C@@H](Cc1ccc(O)cc1)C(N)=O)[C@@H](C)O)[C@@H](C)O)[C@@H](C)O)[C@@H](C)O)[C@@H](C)O [compound 117, [N-terminal(C20 diacid-gGlu), des1, 4G, 15Q, 21Q, 23Y, 25H, 30S, 31G, 32T, 33Y]mimylin] ({C20 diacid-γGlu}-ASGLSTAALGRLSQELHELQTYPHTETGSGTY-NH2)	≧200 μM	≧200 μM	38 (≈ 146 µg/mL)	≧200 μM	≧200 μM	≧200 μM	≧200 μM	≧200 μM	–	–
CC(C)C[C@H](NC(=O)[C@H](C)NC(=O)[C@H](C)NC(=O)[C@@H](NC(=O)[C@H](CO)NC(=O)[C@H](CC(C)C)NC(=O)[C@H](CCC(=O)O)NC(=O)[C@H](CO)NC(=O)[C@H](C)NC(=O)CC[C@H](NC(=O)CCCCCCCCCCCCCCCCCCC(=O)O)C(=O)O)[C@@H](C)O)C(=O)NCC(=O)N[C@@H](CCCNC(=N)N)C(=O)N[C@@H](CC(C)C)C(=O)N[C@@H](CO)C(=O)N[C@@H](C)C(=O)N[C@@H](CCC(=O)O)C(=O)N[C@@H](CC(C)C)C(=O)N[C@@H](Cc1cnc[nH]1)C(=O)N[C@@H](CCC(=O)O)C(=O)N[C@@H](CC(C)C)C(=O)N[C@@H](C)C(=O)N[C@H](C(=O)N[C@@H](CC(C)C)C(=O)N1CCC[C@H]1C(=O)N[C@@H](Cc1cnc[nH]1)C(=O)N[C@H](C(=O)N[C@@H](CCC(=O)O)C(=O)N[C@H](C(=O)NCC(=O)N[C@@H](CO)C(=O)NCC(=O)N[C@@H](CO)C(=O)N1CCC[C@H]1C(N)=O)[C@@H](C)O)[C@@H](C)O)[C@@H](C)O [compound 73, [N-terminal(C20 diacid-gGlu), des1, 25H, 30S, 31G]mimylin] ({C20 diacid-γGlu}-ASELSTAALGRLSAELHELATLPHTETGSGSP-NH2)	≧200 μM	≧200 μM	–	≧200 μM	≧200 μM	≧200 μM	≧200 μM	≧200 μM	–	≧200 μM
CC(C)C[C@H](NC(=O)[C@H](C)NC(=O)[C@H](C)NC(=O)[C@@H](NC(=O)[C@H](CO)NC(=O)[C@H](CC(C)C)NC(=O)[C@H](CCC(=O)O)NC(=O)[C@H](CO)NC(=O)[C@H](C)NC(=O)CC[C@H](NC(=O)CCCCCCCCCCCCCCCCC(=O)O)C(=O)O)[C@@H](C)O)C(=O)NCC(=O)N[C@@H](CCCNC(=N)N)C(=O)N[C@@H](CC(C)C)C(=O)N[C@@H](CO)C(=O)N[C@@H](C)C(=O)N[C@@H](CCC(=O)O)C(=O)N[C@@H](CC(C)C)C(=O)N[C@@H](Cc1cnc[nH]1)C(=O)N[C@@H](CCC(=O)O)C(=O)N[C@@H](CC(C)C)C(=O)N[C@@H](C)C(=O)N[C@H](C(=O)N[C@@H](CC(C)C)C(=O)N1CCC[C@H]1C(=O)N[C@@H](CCCNC(=N)N)C(=O)N[C@H](C(=O)N[C@@H](CCC(=O)O)C(=O)N[C@H](C(=O)NCC(=O)N[C@@H](CO)C(=O)N[C@@H](CCC(=O)O)C(=O)N[C@@H](CO)C(=O)N1CCC[C@H]1C(N)=O)[C@@H](C)O)[C@@H](C)O)[C@@H](C)O [compound 23, [N-terminal(C18 diacid-gGlu), des1, 30S]mimylin] ({C18 diacid-γGlu}-ASELSTAALGRLSAELHELATLPRTETGSESP-NH2)	≧200 μM	≧200 μM	–	≧200 μM	≧200 μM	≧200 μM	≧200 μM	≧200 μM	–	≧200 μM
